Laboratory results as given in ChEMBL document CHEMBL5505979, “Novel aminothiazoximone-corbelled ethoxycarbonylpyrimidones with antibiofilm activity to conquer Gram-negative bacteria through potential multitargeting effects” (Eur J Med Chem, 2024).
≈ marks a conversion by molar mass, not a printed value.

Assays:
Type in all cases: functional
[1] = tested on: Pseudomonas aeruginosa; experiment: Anti-bacterial activity against Pseudomonas aeruginosa ATCC 15442 assessed as inhibition of bacterial growth; conditions: Pseudomonas aeruginosa, ATCC 15442; read-out: MIC
[2] = tested on: Pseudomonas aeruginosa; experiment: Anti-bacterial activity against Pseudomonas aeruginosa ST235 assessed as inhibition of bacterial growth; conditions: Pseudomonas aeruginosa, ST235; read-out: MIC
[3] = tested on: Staphylococcus aureus; experiment: Anti-bacterial activity against Staphylococcus aureus ATCC 12600 assessed as inhibition of bacterial growth; conditions: Staphylococcus aureus, ATCC 12600; read-out: MIC
[4] = tested on: Staphylococcus aureus; experiment: Anti-bacterial activity against Staphylococcus aureus CMCC (B) 26003 assessed as inhibition of bacterial growth
[5] = tested on: Pseudomonas aeruginosa; experiment: Anti-bacterial activity against Pseudomonas aeruginosa ATCC 27853 assessed as inhibition of bacterial growth; conditions: Pseudomonas aeruginosa, ATCC 27853; read-out: MIC
[6] = tested on: Candida parapsilosis; experiment: Anti-fungal activity against Candida parapsilosis assessed as inhibition of fungal growth; conditions: Lodderomyces parapsilosis; read-out: MIC
[7] = tested on: Staphylococcus aureus; experiment: Anti-bacterial activity against Staphylococcus aureus CMCC (B) 26001 assessed as inhibition of bacterial growth
[8] = tested on: Candida albicans; experiment: Anti-fungal activity against Candida albicans 90023 assessed as inhibition of fungal growth
[9] = tested on: Staphylococcus aureus; experiment: Anti-bacterial activity against Staphylococcus aureus ATCC 1708 assessed as inhibition of bacterial growth; conditions: Staphylococcus aureus, ATCC 1708; read-out: MIC
[10] = tested on: Staphylococcus aureus; experiment: Anti-bacterial activity against Staphylococcus aureus ATCC 6538 assessed as inhibition of bacterial growth
[11] = tested on: Staphylococcus aureus; experiment: Anti-bacterial activity against methicillin-resistant Staphylococcus aureus ATCC 43300 assessed as inhibition of bacterial growth; conditions: Staphylococcus aureus, ATCC 43300; read-out: MIC
[12] = tested on: Acinetobacter baumannii; experiment: Anti-bacterial activity against Acinetobacter baumannii R674 assessed as inhibition of bacterial growth
[13] = tested on: Staphylococcus aureus; experiment: Anti-bacterial activity against Staphylococcus aureus ATCC 29213 assessed as inhibition of bacterial growth; conditions: Staphylococcus aureus, ATCC 29213; read-out: MIC
[14] = tested on: Escherichia coli; experiment: Anti-bacterial activity against Escherichia coli JM109 assessed as inhibition of bacterial growth
[15] = tested on: Staphylococcus aureus; experiment: Anti-bacterial activity against methicillin-resistant Staphylococcus aureus N315 assessed as inhibition of bacterial growth; conditions: Staphylococcus aureus, N315; read-out: MIC
[16] = tested on: Escherichia coli; experiment: Anti-bacterial activity against Escherichia coli ATCC 25922 assessed as inhibition of bacterial growth
[17] = tested on: Enterococcus faecalis; experiment: Anti-bacterial activity against Enterococcus faecalis V583 assessed as inhibition of bacterial growth
[18] = tested on: Pseudomonas aeruginosa; experiment: Anti-bacterial activity against Pseudomonas aeruginosa CMCC (B) 10104 assessed as inhibition of bacterial growth; conditions: Pseudomonas aeruginosa, CMCC (B) 10104; read-out: MIC
[19] = tested on: Pseudomonas aeruginosa; experiment: Anti-bacterial activity against Pseudomonas aeruginosa ATCC 9027 assessed as inhibition of bacterial growth
[20] = tested on: Candida albicans; experiment: Anti-fungal activity against Candida albicans assessed as inhibition of fungal growth; conditions: Candida albicans; read-out: MIC
[21] = tested on: Klebsiella pneumoniae; experiment: Anti-bacterial activity against Klebsiella pneumoniae KPN325 assessed as inhibition of bacterial growth; conditions: Klebsiella pneumoniae, KPN325; read-out: MIC
[22] = tested on: Staphylococcus aureus; experiment: Anti-bacterial activity against Staphylococcus aureus ATCC 25923 assessed as inhibition of bacterial growth; conditions: Staphylococcus aureus, ATCC 25923; read-out: MIC
[23] = tested on: Candida tropicalis; experiment: Anti-fungal activity against Candida tropicalis assessed as inhibition of fungal growth; conditions: Candida tropicalis; read-out: MIC

Molecule CCOC(=O)C1=C(CN2CCN(C(=O)/C(=N/OC)c3csc(N)n3)CC2)NC(=O)NC1c1ccc(O)c(OC)c1 (stereo not given) has an MIC [1] of 48 µM (≈ 27.5 µg/mL), an MIC [2] of 48 µM (≈ 27.5 µg/mL) and an MIC [3] of 112 µM (≈ 64.2 µg/mL). The MIC [4] was 112 µM (≈ 64.2 µg/mL), the MIC [5] was 48 µM (≈ 27.5 µg/mL) and the MIC [6] was 444 µM (≈ 255 µg/mL). It also gave an MIC [7] of 56 µM (≈ 32.1 µg/mL), an MIC [8] of 444 µM (≈ 255 µg/mL) and an MIC [9] of 112 µM (≈ 64.2 µg/mL). The MIC [10] was 112 µM (≈ 64.2 µg/mL), the MIC [11] was 28 µM (≈ 16.1 µg/mL) and the MIC [12] was 48 µM (≈ 27.5 µg/mL). For the same molecule, the MIC [13] was 56 µM (≈ 32.1 µg/mL), the MIC [14] was 95 µM (≈ 54.5 µg/mL) and the MIC [15] was 112 µM (≈ 64.2 µg/mL). It also gave an MIC [16] of 48 µM (≈ 27.5 µg/mL), an MIC [17] of 14 µM (≈ 8.03 µg/mL) and an MIC [18] of 95 µM (≈ 54.5 µg/mL). The MIC [19] was 95 µM (≈ 54.5 µg/mL), the MIC [20] was 444 µM (≈ 255 µg/mL) and the MIC [21] was 48 µM (≈ 27.5 µg/mL). The MIC [22] was 56 µM (≈ 32.1 µg/mL) and the MIC [23] was 444 µM (≈ 255 µg/mL).
In the case of CCOC(=O)C1=C(CN2CCN(C(=O)/C(=N/OC)c3csc(N)n3)CC2)NC(=O)NC1c1ccc(C(F)(F)F)cc1 (stereo not given), the MIC [1] was 54 µM (≈ 32.2 µg/mL), the MIC [2] was 54 µM (≈ 32.2 µg/mL) and the MIC [3] was 27 µM (≈ 16.1 µg/mL). For the same molecule, the MIC [4] was 108 µM (≈ 64.3 µg/mL), the MIC [5] was 54 µM (≈ 32.2 µg/mL) and the MIC [6] was 430 µM (≈ 256 µg/mL). For the same molecule, the MIC [7] was 54 µM (≈ 32.2 µg/mL), the MIC [8] was 7 µM (≈ 4.17 µg/mL) and the MIC [9] was 27 µM (≈ 16.1 µg/mL). It also gave an MIC [10] of 54 µM (≈ 32.2 µg/mL), an MIC [11] of 27 µM (≈ 16.1 µg/mL) and an MIC [12] of 27 µM (≈ 16.1 µg/mL). For the same molecule, the MIC [13] was 27 µM (≈ 16.1 µg/mL), the MIC [14] was 27 µM (≈ 16.1 µg/mL) and the MIC [15] was 108 µM (≈ 64.3 µg/mL). For the same molecule, the MIC [16] was 27 µM (≈ 16.1 µg/mL), the MIC [17] was 27 µM (≈ 16.1 µg/mL) and the MIC [18] was 27 µM (≈ 16.1 µg/mL). The MIC [19] was 54 µM (≈ 32.2 µg/mL), the MIC [20] was 430 µM (≈ 256 µg/mL) and the MIC [21] was 108 µM (≈ 64.3 µg/mL). For the same molecule, the MIC [22] was 27 µM (≈ 16.1 µg/mL) and the MIC [23] was 430 µM (≈ 256 µg/mL).
CCCCc1nc(Cl)c(C2NC(=O)NC(CN3CCN(CC(=O)c4ccc(C)cc4)CC3)=C2C(=O)OCC)[nH]1 (stereo not given) showed an MIC [1] of 460 µM (≈ 256 µg/mL), an MIC [2] of 58 µM (≈ 32.3 µg/mL) and an MIC [3] of 230 µM (≈ 128 µg/mL). For the same molecule, the MIC [4] was 460 µM (≈ 256 µg/mL), the MIC [5] was 230 µM (≈ 128 µg/mL) and the MIC [6] was 460 µM (≈ 256 µg/mL). For the same molecule, the MIC [7] was 58 µM (≈ 32.3 µg/mL), the MIC [8] was 230 µM (≈ 128 µg/mL) and the MIC [9] was 460 µM (≈ 256 µg/mL). For the same molecule, the MIC [10] was 230 µM (≈ 128 µg/mL), the MIC [11] was 115 µM (≈ 64.1 µg/mL) and the MIC [12] was 115 µM (≈ 64.1 µg/mL). It also gave an MIC [13] of 58 µM (≈ 32.3 µg/mL), an MIC [14] of 29 µM (≈ 16.2 µg/mL) and an MIC [15] of 230 µM (≈ 128 µg/mL). For the same molecule, the MIC [16] was 115 µM (≈ 64.1 µg/mL), the MIC [17] was 58 µM (≈ 32.3 µg/mL) and the MIC [18] was 230 µM (≈ 128 µg/mL). It also gave an MIC [19] of 29 µM (≈ 16.2 µg/mL), an MIC [20] of 460 µM (≈ 256 µg/mL) and an MIC [21] of 230 µM (≈ 128 µg/mL). The MIC [22] was 58 µM (≈ 32.3 µg/mL) and the MIC [23] was 460 µM (≈ 256 µg/mL).
For CCOC(=O)C1=C(CN2CCN(C(=O)/C(=N/OC)c3csc(N)n3)CC2)NC(=O)NC1c1nccs1 (stereo not given), the MIC [1] was 120 µM (≈ 64.2 µg/mL), the MIC [2] was 30 µM (≈ 16 µg/mL) and the MIC [3] was 120 µM (≈ 64.2 µg/mL). It also gave an MIC [4] of 240 µM (≈ 128 µg/mL), an MIC [5] of 15 µM (≈ 8.02 µg/mL) and an MIC [6] of 479 µM (≈ 256 µg/mL). It also gave an MIC [7] of 60 µM (≈ 32.1 µg/mL), an MIC [8] of 60 µM (≈ 32.1 µg/mL) and an MIC [9] of 240 µM (≈ 128 µg/mL). It also gave an MIC [10] of 120 µM (≈ 64.2 µg/mL), an MIC [11] of 120 µM (≈ 64.2 µg/mL) and an MIC [12] of 479 µM (≈ 256 µg/mL). It also gave an MIC [13] of 479 µM (≈ 256 µg/mL), an MIC [14] of 240 µM (≈ 128 µg/mL) and an MIC [15] of 240 µM (≈ 128 µg/mL). It also gave an MIC [16] of 60 µM (≈ 32.1 µg/mL), an MIC [17] of 240 µM (≈ 128 µg/mL) and an MIC [18] of 240 µM (≈ 128 µg/mL). For the same molecule, the MIC [19] was 60 µM (≈ 32.1 µg/mL), the MIC [20] was 479 µM (≈ 256 µg/mL) and the MIC [21] was 240 µM (≈ 128 µg/mL). For the same molecule, the MIC [22] was 240 µM (≈ 128 µg/mL) and the MIC [23] was 60 µM (≈ 32.1 µg/mL).
For CCOC(=O)C1=C(CN2CCN(C(=O)/C(=N/OC)c3csc(N)n3)CC2)NC(=O)NC1c1ccc(OC)cc1 (stereo not given), the MIC [1] was 230 µM (≈ 128 µg/mL), the MIC [2] was 230 µM (≈ 128 µg/mL) and the MIC [3] was 230 µM (≈ 128 µg/mL). For the same molecule, the MIC [4] was 115 µM (≈ 64.1 µg/mL), the MIC [5] was 230 µM (≈ 128 µg/mL) and the MIC [6] was 470 µM (≈ 262 µg/mL). For the same molecule, the MIC [7] was 58 µM (≈ 32.3 µg/mL), the MIC [8] was 7 µM (≈ 3.9 µg/mL) and the MIC [9] was 115 µM (≈ 64.1 µg/mL). For the same molecule, the MIC [10] was 115 µM (≈ 64.1 µg/mL), the MIC [11] was 115 µM (≈ 64.1 µg/mL) and the MIC [12] was 115 µM (≈ 64.1 µg/mL). It also gave an MIC [13] of 115 µM (≈ 64.1 µg/mL), an MIC [14] of 115 µM (≈ 64.1 µg/mL) and an MIC [15] of 230 µM (≈ 128 µg/mL). It also gave an MIC [16] of 230 µM (≈ 128 µg/mL), an MIC [17] of 58 µM (≈ 32.3 µg/mL) and an MIC [18] of 230 µM (≈ 128 µg/mL). It also gave an MIC [19] of 230 µM (≈ 128 µg/mL), an MIC [20] of 470 µM (≈ 262 µg/mL) and an MIC [21] of 230 µM (≈ 128 µg/mL). It also gave an MIC [22] of 230 µM (≈ 128 µg/mL) and an MIC [23] of 470 µM (≈ 262 µg/mL).
